Key:
fat absorption = conditions: oral; protamine dose of 0.5 g; cited from earlier work
[1] = system: blood tri-glyceride level; assay: Animal test of fat absorption suppressive effect: blood tri-glyceride AUC after corn oil; assay type: in vivo; conditions: Male SD rats
Method: (1) Sample for control group: Distilled water was filtrated by a membrane filter (DISMIC-13CP, PTFE, φ0.45 μm, ADVANTEC) and used as a test sample for the control group.
(2) Sample for protamine group: Protamine (2.50 g) was dissolved in distilled water (50 mL) filtrated by a membrane filter and used as a test sample for the protamine group.
(3) Sample for alginate mixture group: As a dispersant, soybean polysaccharide (SM-700, 400 mg) was dissolved in distilled water (50 mL) filtrated by a membrane filter to prepare a 0.8% dispersant solution. Protamine (2.00 g) was dissolved with the 0.8% dispersant solution (20 mL) to prepare a protamine solution. To the protamine solution (12.5 mL), an alginate solution (12.5 mL), which was prepared by dissolving alginate (1.60 g) in the 0.8% dispersant solution (20 mL), was added while stirring to prepare a protamine complex suspension and used as a test sample for an alginate complex (mixture) group.
(4) Sample for gum arabic mixture group: Protamine (2.00 g) was dissolved in distilled water (20 mL) to prepare a protamine solution. […]
Evaluation was performed using Male SD rats (6 weeks old, 7 rats per group). […] Using the plasma samples, a blood tri-glyceride level was measured and compared to the control group with respect to blood-level area under the curve (AUC).

protamine
fat absorption suppressive effect when orally taken by humans (fat absorption): exerts a fat absorption suppressive effect
fat absorption suppressive effect compared to the control group ([1]; oral, corn oil load): significant fat absorption suppressive effect
AUC relative to control group (blood tri-glyceride level) ([1]; test substance 5 mL/kg orally (corresponding to 0.5 g/kg in terms of protamine), then corn oil 5 mL/kg, blood at 0, 1.5, 3.0, 4.5 hours): 78 ± 7%
